For data set [1], the target named is T1, Constitutive androstane receptor (CAR) (Homo sapiens, UniProt Q14994).
T1 construct: The pGL4-gtPBREM plasmid was transfected into Hep3B cells; endogenous in cells
T1 sequence (Q14994 1-352): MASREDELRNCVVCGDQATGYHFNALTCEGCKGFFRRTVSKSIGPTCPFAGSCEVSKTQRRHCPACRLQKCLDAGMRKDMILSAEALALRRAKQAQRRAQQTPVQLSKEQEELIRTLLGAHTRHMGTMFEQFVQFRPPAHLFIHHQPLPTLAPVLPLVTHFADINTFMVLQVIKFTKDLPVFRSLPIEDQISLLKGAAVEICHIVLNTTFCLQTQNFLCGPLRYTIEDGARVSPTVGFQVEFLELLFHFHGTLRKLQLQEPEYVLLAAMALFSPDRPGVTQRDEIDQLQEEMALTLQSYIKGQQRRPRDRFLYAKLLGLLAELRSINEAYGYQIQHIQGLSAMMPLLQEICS
As to the kind of experiment: In vitro CAR activation screening assay (UGT1A1 promoter gtPBREM-pGL4 luciferase reporter in Hep3B-gtPBREM cells). The format is cell-based. To be noted: Table 2; 10 μM; (luminescence of compound − luminescence of scoparone)/luminescence of scoparone × 100%; read-out: CAR Activation Fold. An excerpt:
Until now, there is no commercially available high throughput screening method for CAR activation. Traditionally, CAR activation can be detected in western blots by its downstream signals such as UGT1A1, MRP2 or CYP2B6. […] However, this method was slow and pricy. In order to rapidly screen all the compounds for CAR activation at less cost, an in vitro CAR activation screening assay was developed: DNA was extracted from Hep3B cells and UGT1A1 promoter was obtained using PCR amplification. Ligation between UGT1A1 promoter and pGL4 vector was performed and the plasmid was amplified via E. coli replication. The desired plasmid was extracted from E. coli and transfected into Hep3B. The desired colony bearing UGT1A1 promoter-pGL4 plasmid was selected by neomycin. CAR activation was measured by adding tested compounds to Hep3B for several hours and luminescence was measured. Higher activation will get higher luminescence readout. This assay system was validated with two different CAR agonists: CITCO (direct agonist) and scoparone (an indirect agonist). […] Different concentration of scoparone at 1, 5, 10 and 20 μM had been tested either for luciferase assay or downstream UGT1A1 and MRP2 expression (data not shown) and 10 μM was selected to be the best condition for the following work.
After successfully establishing the in vitro assay, all of the coumarin compounds were subjected to the screening (at 10 μM) and their SAR was discussed. Although the reporter system can successfully identify CAR-activating compounds under 8 h and display better efficiency and sensitivity compared with western blots, it only presented a medium luciferase response. According to previous studies, CITCO was reported to only moderately enhance human CAR (less than 2-fold), compared with the enhance provided by TCPOBOP for murine CAR (5- to 10-fold) in luciferase reporter assays. […] Another possibility for the medium response in our reporter system might be the contribution of the whole gtPBREM element which might include response-suppressive elements that was used and the single nucleotide variation of DR3 element which was reported to slightly reduce the original UGT1A1 activity.
The genomic DNA was isolated from Hep3B cells using Wizard® Genomic DNA Purification Kit (Promega, Fitchburg, WI, USA). The promoter region of UGT1A1 gene, gtPBREM element, was amplified by AccuPrime^TM Taq DNA Polymerase High Fidelity Kit (Invitrogen, MA, USA). The sequence of the amplified element was confirmed by DNA sequencing company and cloned into pGL4 luciferase reporter vector. The pGL4-gtPBREM plasmid was transfected into Hep3B cells. The stable pGL4-gtPBREM transfected Hep3B cells, Hep3B-gtPBREM cells, were established after G418 selection. The luciferase activity represented of CAR activation ability was measured using individual established clone. Further, CAR-shRNA was obtained from the Genomic Research Center and transfected into Hep3B-gtPBREM cells. The transient transfected shCAR-Hep3B-gtPBREM cells were used for further luciferase assays.
The Hep3B-gtPBREM cells and shCAR-Hep3B-gtPBREM cells (1.5 × 10^5 cells/well) were seeded into 12-well plates for overnight then pre-determined concentration compounds were added for desired time. After treatment, transfected cells were washed twice in PBS, lysated with 1× passive lysis buffer and luciferase intensity of equal amount of cell lysate was measured by a Synergy HT Multi-Mode Microplate Reader (BioTek, Winooski, VT, USA).

Data set [2] can be described thus: MTT cell cytotoxicity assay of coumarin derivatives. Format: cell-based. Conditions: human, Hep 3B cells, 72 h treatment. How it is done:
The colorimetric assay for cellular growth and survivals described by Hansen et al. with modifications. The MTT (3-(4,5-cimethylthiazol-2yl)-2,5-diphenyltetrazolium bromide, Sigma-Aldrich Inc., Germany) assay was utilized to determine the IC50 value of each compound. Cells (5000 cells/well) were seeded into 96-well plates for 24 h and subsequently the cells were treated with vehicle or tested compounds at pre-determined concentration. After 72 h treatment, MTT solution was added to the final concentration of 0.5 mg/mL and continue cultured for 2 h at 37 °C. Afterward, the cells were lysed with lysis buffer (40% DMF and 20% SDS in H2O) overnight at 37 °C to lysate the cells. The absorbance at 570 nm was then detected by a microplate reader and the IC50 value was calculated.

`CCCCCOc1cc2ccc(=O)oc2cc1OCCCCC` [Compound 47, 6,7-Dipentoxycoumarin] yielded a melting point of 57 to 59 °C. Besides, in data set [1], the activation at 10 µM is -10%. Also, the IC50 at 72 h in data set [2] turned out to be 31 µM.
